Data as given in patent publication EP4813991A1 (iLeadBMS Co., Ltd., priority 2023, dated 2025).
Where two headings read alike, the source gives them in different places.

Legend:
CDK12 [1] = molecular target: T1, CDK12 (Homo sapiens, UniProt Q9NYV4); test: CDK12 kinase inhibitory activity assay (33P-ATP filter binding); format: biochemical
Procedure: (§1) Before initiating the CDK12 and CDK13 kinase reactions, each Example compound was dissolved and diluted in DMSO as a solvent across 9 concentration ranges at room temperature. The diluted solutions were then incubated with a mixture of kinase and substrate (and cofactors, if required) for 20 minutes. Next, radioisotope-labeled ATP (^33P-gamma-ATP) was added to proceed with the kinase reaction at room temperature for 120 minutes. After the reaction was completed, the reaction mixture was transferred to a filter paper that binds the radioisotope-labeled catalytic product (^33P-substrate). Unreacted ^33P-ATP was removed by washing with 0.75 % phosphoric acid, and then the radioactive phosphorylated substrate remaining on the filter paper was measured. Kinase activity data were expressed as a percentage of the kinase activity remaining in the test sample compared to a DMSO control group. The half-maximal inhibitory concentration (IC50) for each kinase was calculated using Prism (Graphpad) software.

CDK13 = CDK13 (Homo sapiens, UniProt Q14004); test: CDK13 kinase inhibitory activity assay (33P-ATP filter binding); format: biochemical
CDK13, sequence (Q14004 whole entry, species assumed): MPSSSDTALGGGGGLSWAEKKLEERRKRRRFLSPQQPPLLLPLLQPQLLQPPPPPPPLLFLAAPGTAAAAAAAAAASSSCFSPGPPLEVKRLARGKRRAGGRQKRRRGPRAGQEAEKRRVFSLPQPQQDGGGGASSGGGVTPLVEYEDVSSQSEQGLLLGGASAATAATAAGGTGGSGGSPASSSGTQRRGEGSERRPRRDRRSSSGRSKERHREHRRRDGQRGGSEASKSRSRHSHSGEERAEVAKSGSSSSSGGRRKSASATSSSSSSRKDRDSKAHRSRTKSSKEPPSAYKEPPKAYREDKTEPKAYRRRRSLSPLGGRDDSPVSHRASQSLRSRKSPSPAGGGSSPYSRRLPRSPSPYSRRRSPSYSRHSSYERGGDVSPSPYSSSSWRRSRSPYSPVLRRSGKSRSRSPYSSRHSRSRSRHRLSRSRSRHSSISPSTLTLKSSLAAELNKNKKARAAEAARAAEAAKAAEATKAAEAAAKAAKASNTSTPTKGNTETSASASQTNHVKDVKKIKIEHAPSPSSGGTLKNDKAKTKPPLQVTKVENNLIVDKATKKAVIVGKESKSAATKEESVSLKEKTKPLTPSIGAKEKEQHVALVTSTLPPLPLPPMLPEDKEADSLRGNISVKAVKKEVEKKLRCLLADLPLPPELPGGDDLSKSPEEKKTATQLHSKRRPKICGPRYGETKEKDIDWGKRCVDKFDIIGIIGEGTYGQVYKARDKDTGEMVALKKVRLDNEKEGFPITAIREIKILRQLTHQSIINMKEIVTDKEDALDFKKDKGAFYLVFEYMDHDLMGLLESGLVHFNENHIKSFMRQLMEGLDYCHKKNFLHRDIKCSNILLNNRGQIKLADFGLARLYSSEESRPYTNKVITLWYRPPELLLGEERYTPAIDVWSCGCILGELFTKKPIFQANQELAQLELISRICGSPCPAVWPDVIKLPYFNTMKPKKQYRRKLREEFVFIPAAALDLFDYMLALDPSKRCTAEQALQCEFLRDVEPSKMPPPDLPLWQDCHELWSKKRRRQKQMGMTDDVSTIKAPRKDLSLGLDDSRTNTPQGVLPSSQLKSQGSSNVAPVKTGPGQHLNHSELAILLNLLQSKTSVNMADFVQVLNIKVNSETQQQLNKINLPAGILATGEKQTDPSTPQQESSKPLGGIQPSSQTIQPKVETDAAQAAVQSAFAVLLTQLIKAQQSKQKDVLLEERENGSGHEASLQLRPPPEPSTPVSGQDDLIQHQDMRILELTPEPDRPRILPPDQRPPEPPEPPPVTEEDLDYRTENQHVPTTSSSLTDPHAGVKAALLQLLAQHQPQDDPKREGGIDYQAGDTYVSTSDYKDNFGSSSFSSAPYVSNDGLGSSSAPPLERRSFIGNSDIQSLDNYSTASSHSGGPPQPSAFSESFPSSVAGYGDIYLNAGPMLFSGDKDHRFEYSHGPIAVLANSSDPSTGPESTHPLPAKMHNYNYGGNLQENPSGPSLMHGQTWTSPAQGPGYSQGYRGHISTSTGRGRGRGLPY
CDK13, sequence (O75909 whole entry partner, species assumed): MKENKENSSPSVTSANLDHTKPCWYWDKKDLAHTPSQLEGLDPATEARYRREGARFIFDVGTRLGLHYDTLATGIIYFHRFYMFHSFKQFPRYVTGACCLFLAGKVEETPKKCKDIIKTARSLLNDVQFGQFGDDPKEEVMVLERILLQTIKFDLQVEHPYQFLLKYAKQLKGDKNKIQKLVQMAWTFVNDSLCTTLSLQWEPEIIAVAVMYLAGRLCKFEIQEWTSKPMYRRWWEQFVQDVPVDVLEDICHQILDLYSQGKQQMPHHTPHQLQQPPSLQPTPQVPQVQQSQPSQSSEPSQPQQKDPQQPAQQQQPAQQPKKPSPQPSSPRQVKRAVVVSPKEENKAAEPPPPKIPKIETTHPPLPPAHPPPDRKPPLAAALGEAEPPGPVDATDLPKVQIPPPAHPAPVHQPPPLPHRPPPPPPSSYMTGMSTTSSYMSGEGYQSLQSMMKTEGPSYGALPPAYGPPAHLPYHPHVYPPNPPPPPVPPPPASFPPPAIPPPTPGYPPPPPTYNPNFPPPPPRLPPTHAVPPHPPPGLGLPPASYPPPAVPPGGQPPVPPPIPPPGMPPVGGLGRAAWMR
Procedure: as §1

[2] = tested on: MDA-MB-231 breast cancer cells; test: Proliferation inhibitory activity assay against MDA-MB-231 breast cancer cells; format: cell-based; details: Homo sapiens, 72 hours, CellTiter Glo, relative IC50
Procedure: Experiments were performed using the MDA-MB-231 breast cancer cell line to measure the cell proliferation inhibitory ability of each Example compound. MDA-MB-231 cells were dispensed into a 96-well plate at 100 µL of cell suspension per well using L-15 (Invitrogen) medium containing 10 % FBS, followed by incubation in a cell incubator at 37 °C and 0 % CO2. The next day, each Example compound dissolved and diluted in DMSO across 9 concentration ranges and a DMSO control group were treated on the cells for 72 hours. After the compound treatment was completed, 100 µL of CellTiter Glo (Promega) reagent was added to each well of the 96-well plate, followed by shaking for 10 minutes and standing at room temperature for 10 minutes. Luminescence signals were measured after inserting the 96-well plate into an Envision plate reader (PerkinElmer). Relative IC50 values were calculated by fitting a dose-response curve using XLfit (IDBS Ltd) software.
The breast cancer cell proliferation inhibitory activities of the Example compounds measured by the above method were evaluated according to the following criteria, and the results are presented in Table 13.

CDK12 [3] = molecular target: T1, CDK12; test: Cellular CDK12 inhibitory activity assay (Ser2 phosphorylation of RNA polymerase II subunit B1 CTD in MDA-MB-231 cells); format: cell-based; parameters: using MDA-MB-231 breast cancer cells; endogenous in cells; host or cells: MDA-MB-231
Procedure: MDA-MB-231 cells were dispensed into a 96-well plate at 100 µL of cell suspension per well using L-15 (Invitrogen) medium containing 10 % FBS, followed by overnight incubation in a cell incubator at 37 °C and 0 % CO2. The next day, each Example compound dissolved in DMSO across 9 concentration ranges and a DMSO control group were treated on the MDA-MB-231 cells at 37 °C and 0 % CO2 for 6 hours. After the compound treatment, the medium in the 96-well plate was removed, and 60 µL of a fixing solution (4.0 % paraformaldehyde in PBS) was added to each well, followed by standing for 20 minutes. After removing the fixing solution and washing with PBS, 60 µL of PBS containing 0.1 % Triton X-100 was dispensed into each well, followed by shaking at room temperature for 15 minutes. After washing with PBS, 100 µL of blocking buffer was added, followed by shaking at room temperature for 1 hour. After removing the blocking buffer, primary antibodies, which are RNA polymerase II subunit B1 phospho-Ser2 (1:500, Cell signaling technology) and RNA polymerase II subunit B1 carboxy-terminal domain (1:200, Cell signaling technology), were added at 60 µL per well and reacted overnight at 4 °C. After adding 150 µL of PBS containing 0.1 % Triton X-100 and washing at least twice by shaking at room temperature for 5 minutes, 60 µL of a secondary antibody was added, followed by shaking at room temperature for 1 hour while blocking light. After adding 150 µL of PBS containing 0.1 % Triton X-100 and washing at least twice by shaking at room temperature for 5 minutes, 150 µL of PBS was added again, followed by washing at least twice by shaking at room temperature for 5 minutes. The plate was scanned using a Li-COR Odyssey machine with the wells filled with PBS. IC50 values were calculated by fitting a dose-response curve using a 4-parameter model of Prism (Graphpad) software.

[4] = kinase reaction 120 minutes, 33P-gamma-ATP, read-out: CDK12 IC50
[5] = MDA-MB-231 cells, 6 hours treatment, read-out: pRpbl CTD S2 IC50
[6] = kinase reaction 120 minutes, 33P-gamma-ATP, read-out: CDK13 IC50

T1 sequence (Q9NYV4 whole entry, species assumed): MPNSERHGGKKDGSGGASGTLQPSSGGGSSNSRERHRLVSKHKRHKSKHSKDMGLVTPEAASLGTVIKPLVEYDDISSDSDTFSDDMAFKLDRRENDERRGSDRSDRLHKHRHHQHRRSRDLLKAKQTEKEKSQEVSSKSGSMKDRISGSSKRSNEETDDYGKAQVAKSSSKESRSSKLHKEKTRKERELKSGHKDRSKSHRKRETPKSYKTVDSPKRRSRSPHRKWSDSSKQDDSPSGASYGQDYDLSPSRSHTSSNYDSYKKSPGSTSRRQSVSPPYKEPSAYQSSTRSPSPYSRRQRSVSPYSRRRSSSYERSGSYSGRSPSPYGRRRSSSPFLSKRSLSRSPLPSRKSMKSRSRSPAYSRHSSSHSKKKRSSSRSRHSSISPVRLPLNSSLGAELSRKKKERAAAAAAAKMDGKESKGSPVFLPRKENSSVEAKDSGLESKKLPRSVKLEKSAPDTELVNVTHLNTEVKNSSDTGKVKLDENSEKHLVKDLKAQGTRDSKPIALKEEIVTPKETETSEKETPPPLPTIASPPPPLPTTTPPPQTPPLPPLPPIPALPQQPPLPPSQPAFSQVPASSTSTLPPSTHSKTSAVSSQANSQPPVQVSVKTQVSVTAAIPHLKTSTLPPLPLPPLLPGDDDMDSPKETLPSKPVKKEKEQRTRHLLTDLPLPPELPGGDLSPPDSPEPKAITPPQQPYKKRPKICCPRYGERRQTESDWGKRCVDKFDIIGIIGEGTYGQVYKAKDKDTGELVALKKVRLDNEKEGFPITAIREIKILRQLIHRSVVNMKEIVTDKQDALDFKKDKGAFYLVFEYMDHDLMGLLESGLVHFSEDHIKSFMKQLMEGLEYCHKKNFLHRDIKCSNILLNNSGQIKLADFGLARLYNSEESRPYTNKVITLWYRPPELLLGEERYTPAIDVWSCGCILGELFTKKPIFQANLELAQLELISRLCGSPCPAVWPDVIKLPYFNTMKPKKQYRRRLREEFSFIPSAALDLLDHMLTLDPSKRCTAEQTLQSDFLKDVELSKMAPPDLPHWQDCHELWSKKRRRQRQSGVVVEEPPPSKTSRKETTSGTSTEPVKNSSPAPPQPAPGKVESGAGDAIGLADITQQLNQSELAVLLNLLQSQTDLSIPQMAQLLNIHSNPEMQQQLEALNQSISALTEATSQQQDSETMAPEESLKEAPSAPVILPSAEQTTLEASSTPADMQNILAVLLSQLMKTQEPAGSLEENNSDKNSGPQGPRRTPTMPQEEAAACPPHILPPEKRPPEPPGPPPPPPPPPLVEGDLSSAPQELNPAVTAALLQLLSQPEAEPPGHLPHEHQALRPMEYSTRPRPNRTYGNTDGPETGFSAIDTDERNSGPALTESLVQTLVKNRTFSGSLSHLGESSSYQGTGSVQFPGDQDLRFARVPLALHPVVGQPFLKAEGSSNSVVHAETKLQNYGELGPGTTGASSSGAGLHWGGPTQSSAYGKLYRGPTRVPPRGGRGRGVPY
T1 sequence (O75909 whole entry partner, species assumed): as the sequence (O75909 whole entry partner, species assumed) above

C#Cc1cnc2c(NCc3nc4ccc(F)c(F)c4[nH]3)cc(N3CCOCC3)nn12 [Example 1, N-((6,7-difluoro-1H-benzo[d]imidazol-2-yl)methyl)-3-ethynyl-6-morpholinoimidazo[1,2-b]pyridazin-8-amine]
IC50 (CDK12 [1]; [4]): 100 to 500 nM | IC50 (CDK13): < 100 nM | IC50 [2]: 50 to 500 nM | IC50 (CDK12 [3]; [5]): 300 to 3000 nM

Fc1ccc2nc(CNc3cc(N4CCOCC4)nn4c(CC(F)(F)F)cnc34)[nH]c2c1F [Example 2, N-((6,7-difluoro-1H-benzo[d]imidazol-2-yl)methyl)-6-morpholino-3-(2,2,2-trifluoroethyl)imidazo[1,2-b]pyridazin-8-amine]
IC50 (CDK12 [1]; [4]): 100 to 500 nM | IC50 (CDK13): 100 to 500 nM | IC50 [2]: 50 to 500 nM | IC50 (CDK12 [3]; [5]): 300 to 3000 nM

CC(C)c1cnc2c(NCc3nc4ccc(F)c(F)c4[nH]3)cc(N3CCOCC3)nn12 [Example 3, N-((6,7-difluoro-1H-benzo[d]imidazol-2-yl)methyl)-3-isopropyl-6-morpholinoimidazo[1,2-b]pyridazin-8-amine]
IC50 (CDK12 [1]; [4]): > 500 nM | IC50 (CDK13): 100 to 500 nM | IC50 [2]: 50 to 500 nM | IC50 (CDK12 [3]; [5]): 300 to 3000 nM

Cc1cnc2c(NCc3nc4ccc(F)c(F)c4[nH]3)cc(N3CCOCC3)nn12 [Example 4, N-((6,7-difluoro-1H-benzo[d]imidazol-2-yl)methyl)-3-methyl-6-morpholinoimidazo[1,2-b]pyridazin-8-amine]
IC50 (CDK12 [1]; [4]): > 500 nM | IC50 (CDK13; [6]): 100 to 500 nM | IC50 [2]: > 500 nM | IC50 (CDK12 [3]; [5]): > 3000 nM

CCc1cnc2c(NCc3nc4ccc(F)c(F)c4[nH]3)cc(N3CCOCC3)nn12 [Example 5, N-((6,7-difluoro-1H-benzo[d]imidazol-2-yl)methyl)-3-ethyl-6-morpholinoimidazo[1,2-b]pyridazin-8-amine]
IC50 (CDK12 [1]; [4]): 100 to 500 nM | IC50 (CDK13; [6]): < 100 nM | IC50 [2]: 50 to 500 nM | IC50 (CDK12 [3]; [5]): 300 to 3000 nM

Fc1ccc2nc(CNc3cc(N4CCOCC4)nn4c(C(F)(F)F)cnc34)[nH]c2c1F [Example 6, N-((6,7-difluoro-1H-benzo[d]imidazol-2-yl)methyl)-6-morpholino-3-(trifluoromethyl)imidazo[1,2-b]pyridazin-8-amine]
IC50 (CDK12 [1]; [4]): < 100 nM | IC50 (CDK13; [6]): < 100 nM | IC50 [2]: ≤ 50 nM | IC50 (CDK12 [3]; [5]): < 300 nM

Fc1ccc2nc(CNc3cc(N4CC5CCC(C4)O5)nn4c(C(F)(F)F)cnc34)[nH]c2c1F [Example 9]
IC50 (CDK12 [1]): < 100 nM | IC50 (CDK13; [6]): < 100 nM | IC50 [2]: ≤ 50 nM | IC50 (CDK12 [3]; [5]): < 300 nM

Fc1ccc2nc(CNc3cc(N4CC5CCC(C4)N5)nn4c(C(F)(F)F)cnc34)[nH]c2c1F [Example 10, 6-(3,8-diazabicyclo[3.2.1]octan-3-yl)-N-((6,7-difluoro-1H-benzo[d]imidazol-2-yl)methyl)-3-(trifluoromethyl)imidazo[1,2-b]pyridazin-8-amine]
IC50 (CDK12 [1]; [4]): < 100 nM | IC50 (CDK13; [6]): < 100 nM | IC50 [2]: ≤ 50 nM | IC50 (CDK12 [3]; [5]): < 300 nM

Fc1ccc2nc(CNc3cc(N4CC5CCC4CO5)nn4c(C(F)(F)F)cnc34)[nH]c2c1F (stereo not shown) [Example 12]
IC50 (CDK12 [1]): < 100 nM | IC50 (CDK13; [6]): < 100 nM | IC50 [2]: ≤ 50 nM | IC50 (CDK12 [3]; [5]): < 300 nM

Fc1ccc2nc(CNc3cc(N4CCC4)nn4c(C(F)(F)F)cnc34)[nH]c2c1F [Example 15]
IC50 (CDK12 [1]; [4]): 100 to 500 nM | IC50 (CDK13; [6]): < 100 nM | IC50 [2]: ≤ 50 nM | IC50 (CDK12 [3]; [5]): 300 to 3000 nM

CC#Cc1cnc2c(NCc3nc4ccc(F)c(F)c4[nH]3)cc(-c3cnc(N)nc3)nn12 [Example 20, 6-(2-aminopyrimidin-5-yl)-N-((6,7-difluoro-1H-benzo[d]imidazol-2-yl)methyl)-3-(prop-1-yn-1-yl)imidazo[1,2-b]pyridazin-8-amine]
IC50 (CDK12 [1]; [4]): > 500 nM | IC50 (CDK13; [6]): 100 to 500 nM | IC50 [2]: 50 to 500 nM | IC50 (CDK12 [3]; [5]): 300 to 3000 nM

Nc1ncc(-c2cc(NCc3nc4ccc(F)c(F)c4[nH]3)c3ncc(C#CC4CC4)n3n2)cn1 [Example 21, 6-(2-aminopyrimidin-5-yl)-3-(cyclopropylethynyl)-N-((6,7-difluoro-1H-benzo[d]imidazol-2-yl)methyl)imidazo[1,2-b]pyridazin-8-amine]
IC50 (CDK12 [1]; [4]): > 500 nM | IC50 (CDK13; [6]): > 500 nM | IC50 [2]: > 500 nM | IC50 (CDK12 [3]; [5]): > 3000 nM

CC#Cc1cnc2c(NCc3nc4ccc(F)c(F)c4[nH]3)cc(N3CCOCC3)nn12 [Example 24, N-((6,7-difluoro-1H-benzo[d]imidazol-2-yl)methyl)-6-morpholino-3-(prop-1-yn-1-yl)imidazo[1,2-b]pyridazin-8-amine]
IC50 (CDK12 [1]; [4]): > 500 nM | IC50 (CDK13; [6]): 100 to 500 nM | IC50 [2]: > 500 nM | IC50 (CDK12 [3]; [5]): > 3000 nM

Fc1ccc2nc(CNc3cc(N4CCOCC4)nn4c(C#CC5CC5)cnc34)[nH]c2c1F [Example 25, 3-(cyclopropylethynyl)-N-((6,7-difluoro-1H-benzo[d]imidazol-2-yl)methyl)-6-morpholinoimidazo[1,2-b]pyridazin-8-amine]
IC50 (CDK12 [1]; [4]): > 500 nM | IC50 (CDK13; [6]): > 500 nM | IC50 [2]: > 500 nM | IC50 (CDK12 [3]; [5]): > 3000 nM

Fc1ccc2nc(CNc3cc(N4CCOCC4)nn4c(I)cnc34)[nH]c2c1F [Example 26, N-((6,7-difluoro-1H-benzo[d]imidazol-2-yl)methyl)-3-iodo-6-morpholinoimidazo[1.2-b]pyridazin-8-amine]
IC50 (CDK12 [1]): > 500 nM | IC50 (CDK13): > 500 nM | IC50 [2]: > 500 nM | IC50 (CDK12 [3]): > 3000 nM

Fc1ccc2nc(CNc3cc(N4CCOCC4)nn4c(Cl)cnc34)[nH]c2c1F [Example 27, 3-chloro-N-((6,7-difluoro-1H-benzo[d]imidazol-2-yl)methyl)-6-morpholinoimidazo[1,2-b]pyridazin-8-amine]
IC50 (CDK12 [1]): > 500 nM | IC50 (CDK13; [6]): > 500 nM | IC50 [2]: > 500 nM | IC50 (CDK12 [3]; [5]): > 3000 nM

Fc1ccc2nc(CNc3cc(N4CCN(C5CC5)CC4)nn4c(C(F)(F)F)cnc34)[nH]c2c1F [Example 28, 6-(4-cyclopropylpiperazin-1-yl)-N-((6,7-difluoro-1H-benzo[d]imidazol-2-yl)methyl)-3-(trifluoromethyl)imidazo[1,2-b]pyridazin-8-amine]
IC50 (CDK12 [1]; [4]): 100 to 500 nM | IC50 (CDK13): 100 to 500 nM | IC50 [2]: 50 to 500 nM | IC50 (CDK12 [3]; [5]): 300 to 3000 nM

FC(F)(F)c1cnc2c(NCc3nc4cc(Cl)c(Cl)cc4[nH]3)cc(N3CC4CC(C4)C3)nn12 [Example 31, 6-(3-azabicyclo[3.1.1]heptan-3-yl)-N-((5,6-dichloro-1H-benzo[d]imidazol-2-yl)methyl)-3-(trifluoromethyl)imidazo[1,2-b]pyridazin-8-amine]
IC50 (CDK12 [1]; [4]): > 500 nM | IC50 (CDK13; [6]): 100 to 500 nM | IC50 [2]: > 500 nM | IC50 (CDK12 [3]; [5]): 300 to 3000 nM

FC(F)(F)c1cnc2c(NCc3nc4cc(Cl)c(Cl)cc4[nH]3)cc(N3CC4CC(C3)O4)nn12 [Example 32]
IC50 (CDK12 [1]; read-out: CDK12 IC50, kinase reaction 120 minutes, 33P-gamma-ATP): 100 to 500 nM | IC50 (CDK13; [6]): 100 to 500 nM | IC50 [2]: ≤ 50 nM | IC50 (CDK12 [3]; [5]): < 300 nM

CN1C2CCC1CN(c1cc(NCc3nc4cc(Cl)c(Cl)cc4[nH]3)c3ncc(C(F)(F)F)n3n1)C2 [Example 33]
IC50 (CDK12 [1]; [4]): < 100 nM | IC50 (CDK13; [6]): < 100 nM | IC50 [2]: ≤ 50 nM | IC50 (CDK12 [3]; [5]): < 300 nM

N#CC1CN(c2cc(NCc3nc4ccc(F)c(F)c4[nH]3)c3ncc(C(F)(F)F)n3n2)C1 [Example 54, 1-(8-(((6,7-difluoro-1H-benzo[d]imidazol-2-yl)methyl)amino)-3-(trifluoromethyl)imidazo[1,2-b]pyridazin-6-yl)azetidine-3-carbonitrile]
IC50 [2]: 50 to 500 nM | IC50 (CDK12 [3]; [5]): 300 to 3000 nM
